Measurements reported in PubChem BioAssay (NCI).
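A five-concentration, 48-hour dose response in 96-well plates underlies each endpoint, interpolated linearly between surrounding concentrations. Definition used: TGI = concentration required for complete inhibition of growth.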

Experiments:
Assay in all cases: NCI anticancer screen, dose series, 48 h
DMS 114 small cell lung = tested on: DMS 114 small cell lung
ACHN renal = tested on: ACHN renal
SF-539 CNS = tested on: SF-539 CNS
SNB-19 CNS = tested on: SNB-19 CNS
HOP-62 NSCLC = tested on: HOP-62 NSCLC
SK-MEL-2 melanoma = tested on: SK-MEL-2 melanoma
HOP-92 NSCLC = tested on: HOP-92 NSCLC
OVCAR-5 ovarian = tested on: OVCAR-5 ovarian
HL-60(TB) leukemia = tested on: HL-60(TB) leukemia
MOLT-4 leukemia = tested on: MOLT-4 leukemia
SR leukemia = tested on: SR leukemia
SK-MEL-5 melanoma = tested on: SK-MEL-5 melanoma
OVCAR-8 ovarian = tested on: OVCAR-8 ovarian
K-562 leukemia = tested on: K-562 leukemia
786-0 renal = tested on: 786-0 renal
EKVX NSCLC = tested on: EKVX NSCLC
UACC-257 melanoma = tested on: UACC-257 melanoma
SNB-75 CNS = tested on: SNB-75 CNS
SW-620 colon = tested on: SW-620 colon
LXFL 529 NSCLC = tested on: LXFL 529 NSCLC
A549 NSCLC = tested on: A549 NSCLC
RPMI-8226 leukemia = tested on: RPMI-8226 leukemia
NCI-H226 lung = tested on: NCI-H226 lung
UACC-62 melanoma = tested on: UACC-62 melanoma
DLD-1 colon = tested on: DLD-1 colon
M14 melanoma = tested on: M14 melanoma
TK-10 renal = tested on: TK-10 renal
HCT-116 colon = tested on: HCT-116 colon
UO-31 renal = tested on: UO-31 renal
NCI-H23 lung = tested on: NCI-H23 lung
U251 CNS = tested on: U251 CNS
SK-MEL-28 melanoma = tested on: SK-MEL-28 melanoma
SNB-78 CNS = tested on: SNB-78 CNS
DMS 273 small cell lung = tested on: DMS 273 small cell lung
LOX IMVI melanoma = tested on: LOX IMVI melanoma
SF-268 CNS = tested on: SF-268 CNS
KM12 colon = tested on: KM12 colon
OVCAR-4 ovarian = tested on: OVCAR-4 ovarian
HCT-15 colon = tested on: HCT-15 colon
NCI-H460 lung = tested on: NCI-H460 lung
XF 498 CNS = tested on: XF 498 CNS
CCRF-CEM leukemia = tested on: CCRF-CEM leukemia
HCC-2998 colon = tested on: HCC-2998 colon
COLO 205 colon = tested on: COLO 205 colon
OVCAR-3 ovarian = tested on: OVCAR-3 ovarian
M19-MEL melanoma = tested on: M19-MEL melanoma
KM20L2 colon = tested on: KM20L2 colon
SN12C renal = tested on: SN12C renal
MALME-3M melanoma = tested on: MALME-3M melanoma
CAKI-1 renal = tested on: CAKI-1 renal
A498 renal = tested on: A498 renal
NCI-H522 lung = tested on: NCI-H522 lung
SK-OV-3 ovarian = tested on: SK-OV-3 ovarian
SF-295 CNS = tested on: SF-295 CNS
IGROV1 ovarian = tested on: IGROV1 ovarian
RXF-631 renal = tested on: RXF-631 renal
HT29 colon = tested on: HT29 colon
RXF 393 renal = tested on: RXF 393 renal
HOP-18 NSCLC = tested on: HOP-18 NSCLC

Measured: TGI

CCN=C(NNc1ccc([N+](=O)[O-])cc1)P(=O)(OC(C)C)OC(C)C
> 100 µM: DMS 114 small cell lung | ACHN renal | SF-539 CNS | SNB-19 CNS | HOP-62 NSCLC | SK-MEL-2 melanoma | HOP-92 NSCLC | OVCAR-5 ovarian | HL-60(TB) leukemia | MOLT-4 leukemia | SR leukemia | SK-MEL-5 melanoma | OVCAR-8 ovarian | K-562 leukemia | 786-0 renal | EKVX NSCLC | UACC-257 melanoma | SNB-75 CNS | SW-620 colon | LXFL 529 NSCLC | A549 NSCLC | RPMI-8226 leukemia | NCI-H226 lung | UACC-62 melanoma | DLD-1 colon | M14 melanoma | TK-10 renal | HCT-116 colon | UO-31 renal | NCI-H23 lung | U251 CNS | SK-MEL-28 melanoma | SNB-78 CNS | DMS 273 small cell lung | LOX IMVI melanoma | SF-268 CNS | KM12 colon | OVCAR-4 ovarian | HCT-15 colon | NCI-H460 lung | XF 498 CNS | CCRF-CEM leukemia | HCC-2998 colon | COLO 205 colon | OVCAR-3 ovarian | M19-MEL melanoma | KM20L2 colon | SN12C renal | MALME-3M melanoma | CAKI-1 renal | A498 renal | NCI-H522 lung

CC(=O)OC1COC(Nc2ccc(C(C)=O)cc2)C(OC(C)=O)C1OC(C)=O (stereo unspecified)
> 100 µM: SK-OV-3 ovarian | DMS 114 small cell lung | ACHN renal | SF-539 CNS | SNB-19 CNS | HOP-62 NSCLC | SK-MEL-2 melanoma | HOP-92 NSCLC | MOLT-4 leukemia | SR leukemia | SK-MEL-5 melanoma | OVCAR-8 ovarian | K-562 leukemia | 786-0 renal | EKVX NSCLC | UACC-257 melanoma | SNB-75 CNS | SW-620 colon | SF-295 CNS | LXFL 529 NSCLC | A549 NSCLC | RPMI-8226 leukemia | NCI-H226 lung | UACC-62 melanoma | DLD-1 colon | M14 melanoma | IGROV1 ovarian | TK-10 renal | RXF-631 renal | UO-31 renal | NCI-H23 lung | U251 CNS | SK-MEL-28 melanoma | HT29 colon | SNB-78 CNS | RXF 393 renal | DMS 273 small cell lung | LOX IMVI melanoma | SF-268 CNS | KM12 colon | OVCAR-4 ovarian | HCT-15 colon | NCI-H460 lung | CCRF-CEM leukemia | HCC-2998 colon | COLO 205 colon | OVCAR-3 ovarian | HOP-18 NSCLC | M19-MEL melanoma | KM20L2 colon | SN12C renal | MALME-3M melanoma | CAKI-1 renal | A498 renal | NCI-H522 lung

O=C(CO)CC(=O)C(=O)Nc1ccccc1
> 100 µM: SK-OV-3 ovarian | DMS 114 small cell lung | ACHN renal | SF-539 CNS | SNB-19 CNS | HOP-62 NSCLC | SK-MEL-2 melanoma | HOP-92 NSCLC | OVCAR-5 ovarian | HL-60(TB) leukemia | MOLT-4 leukemia | SR leukemia | SK-MEL-5 melanoma | OVCAR-8 ovarian | K-562 leukemia | 786-0 renal | EKVX NSCLC | UACC-257 melanoma | SW-620 colon | SF-295 CNS | LXFL 529 NSCLC | A549 NSCLC | NCI-H226 lung | UACC-62 melanoma | DLD-1 colon | M14 melanoma | IGROV1 ovarian | TK-10 renal | HCT-116 colon | RXF-631 renal | UO-31 renal | NCI-H23 lung | U251 CNS | SK-MEL-28 melanoma | HT29 colon | SNB-78 CNS | RXF 393 renal | DMS 273 small cell lung | LOX IMVI melanoma | SF-268 CNS | KM12 colon | OVCAR-4 ovarian | HCT-15 colon | NCI-H460 lung | CCRF-CEM leukemia | HCC-2998 colon | COLO 205 colon | OVCAR-3 ovarian | HOP-18 NSCLC | M19-MEL melanoma | KM20L2 colon | SN12C renal | MALME-3M melanoma

Nc1ccc2nc(Nc3ccc(F)cc3)cnc2c1
> 100 µM: DMS 114 small cell lung | ACHN renal | SF-539 CNS | SNB-19 CNS | HOP-62 NSCLC | SK-MEL-2 melanoma | OVCAR-5 ovarian | HL-60(TB) leukemia | MOLT-4 leukemia | SR leukemia | SK-MEL-5 melanoma | OVCAR-8 ovarian | K-562 leukemia | 786-0 renal | EKVX NSCLC | UACC-257 melanoma | SNB-75 CNS | SW-620 colon | SF-295 CNS | A549 NSCLC | RPMI-8226 leukemia | NCI-H226 lung | DLD-1 colon | M14 melanoma | TK-10 renal | HCT-116 colon | UO-31 renal | SK-MEL-28 melanoma | HT29 colon | DMS 273 small cell lung | LOX IMVI melanoma | SF-268 CNS | KM12 colon | OVCAR-4 ovarian | HCT-15 colon | NCI-H460 lung | XF 498 CNS | CCRF-CEM leukemia | HCC-2998 colon | COLO 205 colon | OVCAR-3 ovarian | M19-MEL melanoma | SN12C renal | MALME-3M melanoma | CAKI-1 renal | NCI-H522 lung
